Test results reported in US12503438B2, “Compounds for the treatment of kinase-dependent disorders” (Exelixis, Inc., priority 2019, dated 2025).

Molecular target: T1, AXL (Homo sapiens, UniProt P30530)
T1 construct: endogenous in cells; host or cells: A-172 glioblastoma cells (ATCC #CRL-1620)
T1 sequence (P30530 26-894): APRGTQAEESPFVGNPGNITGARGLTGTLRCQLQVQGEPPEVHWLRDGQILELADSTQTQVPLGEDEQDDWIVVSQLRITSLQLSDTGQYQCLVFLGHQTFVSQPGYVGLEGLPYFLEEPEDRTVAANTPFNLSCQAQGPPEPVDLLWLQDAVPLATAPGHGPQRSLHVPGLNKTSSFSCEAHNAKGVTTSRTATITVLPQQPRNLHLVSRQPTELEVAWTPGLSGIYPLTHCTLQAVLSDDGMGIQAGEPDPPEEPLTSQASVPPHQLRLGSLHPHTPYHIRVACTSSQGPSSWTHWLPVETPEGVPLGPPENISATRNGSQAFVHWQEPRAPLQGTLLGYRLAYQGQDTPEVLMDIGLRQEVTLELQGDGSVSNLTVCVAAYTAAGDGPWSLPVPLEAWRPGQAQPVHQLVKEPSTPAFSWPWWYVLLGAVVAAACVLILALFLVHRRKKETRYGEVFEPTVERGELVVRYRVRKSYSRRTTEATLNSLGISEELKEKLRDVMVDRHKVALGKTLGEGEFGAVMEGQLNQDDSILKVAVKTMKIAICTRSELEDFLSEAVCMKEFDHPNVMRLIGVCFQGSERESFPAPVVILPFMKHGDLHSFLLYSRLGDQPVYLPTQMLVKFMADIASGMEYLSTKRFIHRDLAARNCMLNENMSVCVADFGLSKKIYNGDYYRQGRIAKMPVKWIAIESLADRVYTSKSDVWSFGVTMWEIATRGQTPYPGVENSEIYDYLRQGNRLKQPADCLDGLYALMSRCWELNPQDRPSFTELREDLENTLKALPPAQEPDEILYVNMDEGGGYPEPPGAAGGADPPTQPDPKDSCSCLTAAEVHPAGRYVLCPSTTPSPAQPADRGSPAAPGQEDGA
Test: AXL autophosphorylation ELISA in A-172 cells
Format: cell-based
Details: cellular activity, Gas6-stimulated, phospho-AXL ELISA
Procedure: A-172 glioblastoma cells (ATCC #CRL-1620) were seeded at 2.5×10^5 cells/well onto 24-well plates (Greiner #662165), in DMEM (Thermo Fisher #11995-040) containing 10% FBS (Thermo Fisher #26140-079), 1% MEM NEAA (Thermo Fisher #11140-050), 1% GlutaMax (Thermo Fisher #35050-061) and 1% Penicillin Streptomycin (Thermo Fisher #15140-122). A-172 cells were incubated at 37° C., 5% CO2 for 24 h and then starved for 24 h in serum-free medium. Test compounds were serially diluted to produce an 8-point dose curve in fresh serum-free medium to a final concentration of 0.3% DMSO (vehicle) and added to the cells and incubated for 1 h. Cells were then stimulated with 1 μg/mL recombinant human Gas6 (R&D Systems #885-GSB-500) for 15 min, washed with cold PBS and immediately lysed with 150 μL of cold 1× lysis buffer [20 mM Tris, 137 mM sodium chloride, 2 mM EDTA, 10% glycerol, 1% NP-40 alternative, 1 mM activated sodium orthovanadate, 1 mM PefaBloc SC (Sigma-Aldrich #11429868001), protease/phosphatase inhibitor tablet (Thermo Fisher #A32959)]. Lysates were collected and 100 μL/well added into the human phospho-AXL DuoSet IC ELISA (R&D Systems #DYC2228-2). Assay was performed according to manufacturer's instructions and sample phospho-AXL concentrations were extrapolated using human phospho-AXL control (R&D Systems #841645) as a standard. Positive control wells (100% activity) contained Gas6-stimulated, DMSO-treated cell lysates. Negative control wells (0% activity) contained Gas6-stimulated, reference inhibitor-treated cell lysates. IC50 values were calculated by nonlinear regression analysis using a 4-parameter logistic curve fit in ActivityBase XE (IDBS).

Row | Compound | IC50 [nM]
1 | COc1cc(-c2ccc3c(Oc4ccc(NC(=O)C5(C(=O)Nc6ccc(F)cc6)CC5)cc4)ccnc3c2)ccn1 [Compound 31, 1-N′-(4-Fluorophenyl)-1-N-[4-[7-(2-methoxypyridin-4-yl)quinolin-4-yl]oxyphenyl]cyclopropane-1,1-dicarboxamide] | 10 to 100
2 | O=C(Nc1ccc(F)cc1)C1(C(=O)Nc2ccc(Oc3ccnc4cc(-c5cnn(C(F)F)c5)ccc34)c(F)c2)CC1 [Compound 123, 1-N′-[4-[7-[1-(Difluoromethyl)pyrazol-4-yl]quinolin-4-yl]oxy-3-fluorophenyl]-1-N-(4-fluorophenyl)cyclopropane-1,1-dicarboxamide] | ≤ 10
3 | O=C(Nc1ccc(F)cc1)C1(C(=O)Nc2cc(F)c(Oc3ccnc4cc(-c5cccnc5)ccc34)cc2F)CC1 [Compound 115, 1-N′-[2,5-Difluoro-4-(7-pyridin-3-ylquinolin-4-yl)oxyphenyl]-1-N-(4-fluorophenyl)cyclopropane-1,1-dicarboxamide] | ≤ 10
4 | CC(C)n1cc(-c2ccc3c(Oc4ccc(NC(=O)C5(C(=O)Nc6ccc(F)cc6)CC5)cc4)ccnc3c2)cn1 [Compound 21, 1-N′-(4-Fluorophenyl)-1-N-[4-[7-(1-propan-2-ylpyrazol-4-yl)quinolin-4-yl]oxyphenyl]cyclopropane-1,1-dicarboxamide] | ≤ 10
5 | O=C(Nc1ccc(F)cc1)C1(C(=O)Nc2ccc(Oc3ccnc4cc(-c5cccnc5)ccc34)c(F)c2)CC1 [Compound 113, 1-N-(4-Fluorophenyl)-1-N′-[3-fluoro-4-(7-pyridin-3-ylquinolin-4-yl)oxyphenyl]cyclopropane-1,1-dicarboxamide] | 10 to 100
6 | O=C(Nc1ccc(F)cc1)C1(C(=O)Nc2ccc(Oc3ccnc4cc(-c5cncc(F)c5)ccc34)cc2)CC1 [Compound 45, 1-N′-(4-Fluorophenyl)-1-N-[4-[7-(5-fluoropyridin-3-yl)quinolin-4-yl]oxyphenyl]cyclopropane-1,1-dicarboxamide] | 10 to 100
7 | Cc1cc2c(Oc3ccc(NC(=O)C4(C(=O)Nc5ccc(F)cc5)CC4)cc3F)ccnc2cc1-c1ncc[nH]1 [Compound 122, 1-N′-[3-Fluoro-4-[7-(1H-imidazol-2-yl)-6-methylquinolin-4-yl]oxyphenyl]-1-N-(4-fluorophenyl)cyclopropane-1,1-dicarboxamide] | 10 to 100
8 | CN1CCN(c2cc(-c3ccc4c(Oc5ccc(NC(=O)C6(C(=O)Nc7ccc(F)cc7)CC6)cc5)ccnc4c3)ccn2)CC1 [Compound 111, 1-N′-(4-Fluorophenyl)-1-N-[4-[7-[2-(4-methylpiperazin-1-yl)pyridin-4-yl]quinolin-4-yl]oxyphenyl]cyclopropane-1,1-dicarboxamide] | 10 to 100
9 | O=C(Nc1ccc(F)cc1)C1(C(=O)Nc2ccc(Oc3ccnc4cc(-c5cnc6[nH]ncc6c5)ccc34)cc2)CC1 [Compound 39, 1-N′-(4-Fluorophenyl)-1-N-[4-[7-(1H-pyrazolo[3,4-b]pyridin-5-yl)quinolin-4-yl]oxyphenyl]cyclopropane-1,1-dicarboxamide] | 10 to 100
10 | Cc1cc2c(Oc3cc(F)c(NC(=O)C4(C(=O)Nc5ccc(F)cc5)CC4)cc3F)ccnc2cc1-c1ncc[nH]1 [Compound 121, 1-N′-[2,5-Difluoro-4-[7-(1H-imidazol-2-yl)-6-methylquinolin-4-yl]oxyphenyl]-1-N-(4-fluorophenyl)cyclopropane-1,1-dicarboxamide] | ≤ 10
11 | N#Cc1ccc(-c2ccc3c(Oc4ccc(NC(=O)C5(C(=O)Nc6ccc(F)cc6)CC5)cc4)ccnc3c2)cn1 [Compound 42, 1-N-[4-[7-(6-Cyanopyridin-3-yl)quinolin-4-yl]oxyphenyl]-1-N′-(4-fluorophenyl)cyclopropane-1,1-dicarboxamide] | 10 to 100
12 | Cc1cc(-c2ccc3c(Oc4ccc(NC(=O)C5(C(=O)Nc6ccc(F)cc6)CC5)cc4)ccnc3c2)ccn1 [Compound 30, 1-N′-(4-Fluorophenyl)-1-N-[4-[7-(2-methylpyridin-4-yl)quinolin-4-yl]oxyphenyl]cyclopropane-1,1-dicarboxamide] | 10 to 100
13 | Cc1cc2c(Oc3cc(Cl)c(NC(=O)C4(C(=O)Nc5ccc(F)cc5)CC4)cc3F)ccnc2cc1-c1cnn(C)c1 [Compound 112, 1-N′-[2-Chloro-5-fluoro-4-[6-methyl-7-(1-methylpyrazol-4-yl)quinolin-4-yl]oxyphenyl]-1-N-(4-fluorophenyl)cyclopropane-1,1-dicarboxamide] | 10 to 100
14 | O=C(Nc1ccc(F)cc1)C1(C(=O)Nc2ccc(Oc3ccnc4cc(-c5cncs5)ccc34)cc2)CC1 [Compound 116, 1-N′-(4-Fluorophenyl)-1-N-[4-[7-(1,3-thiazol-5-yl)quinolin-4-yl]oxyphenyl]cyclopropane-1,1-dicarboxamide] | 10 to 100
15 | N#Cc1cncc(-c2ccc3c(Oc4ccc(NC(=O)C5(C(=O)Nc6ccc(F)cc6)CC5)cc4)ccnc3c2)c1 [Compound 40, 1-N-[4-[7-(5-Cyanopyridin-3-yl)quinolin-4-yl]oxyphenyl]-1-N′-(4-fluorophenyl)cyclopropane-1,1-dicarboxamide] | 10 to 100
16 | CC(C)Oc1ccc(-c2ccc3c(Oc4ccc(NC(=O)C5(C(=O)Nc6ccc(F)cc6)CC5)cc4)ccnc3c2)cn1 [Compound 50, 1-N′-(4-Fluorophenyl)-1-N-[4-[7-(6-propan-2-yloxypyridin-3-yl)quinolin-4-yl]oxyphenyl]cyclopropane-1,1-dicarboxamide] | 100 to 300
17 | Nc1ccc(-c2ccc3c(Oc4ccc(NC(=O)C5(C(=O)Nc6ccc(F)cc6)CC5)cc4)ccnc3c2)cn1 [Compound 38, 1-N-[4-[7-(6-Aminopyridin-3-yl)quinolin-4-yl]oxyphenyl]-1-N′-(4-fluorophenyl)cyclopropane-1,1-dicarboxamide] | 10 to 100
18 | Cc1cc2c(Oc3ccc(NC(=O)C4(C(=O)Nc5ccc(F)cc5)CC4)cc3)ccnc2cc1-c1ncc[nH]1 [Compound 120, 1-N′-(4-Fluorophenyl)-1-N-[4-[7-(1H-imidazol-2-yl)-6-methylquinolin-4-yl]oxyphenyl]cyclopropane-1,1-dicarboxamide] | 10 to 100
19 | N#Cc1cc(-c2ccc3c(Oc4ccc(NC(=O)C5(C(=O)Nc6ccc(F)cc6)CC5)cc4)ccnc3c2)ccn1 [Compound 34, 1-N-[4-[7-(2-Cyanopyridin-4-yl)quinolin-4-yl]oxyphenyl]-1-N′-(4-fluorophenyl)cyclopropane-1,1-dicarboxamide] | 10 to 100
20 | O=C(Nc1ccc(F)cc1)C1(C(=O)Nc2ccc(Oc3ccnc4cc(-c5ccnc(F)c5)ccc34)cc2)CC1 [Compound 33, 1-N′-(4-Fluorophenyl)-1-N-[4-[7-(2-fluoropyridin-4-yl)quinolin-4-yl]oxyphenyl]cyclopropane-1,1-dicarboxamide] | 10 to 100
21 | COc1cncc(-c2ccc3c(Oc4ccc(NC(=O)C5(C(=O)Nc6ccc(F)cc6)CC5)cc4)ccnc3c2)c1 [Compound 47, 1-N′-(4-Fluorophenyl)-1-N-[4-[7-(5-methoxypyridin-3-yl)quinolin-4-yl]oxyphenyl]cyclopropane-1,1-dicarboxamide] | 10 to 100
22 | Cn1cc(-c2ccc3c(Oc4ccc(NC(=O)C5(C(=O)Nc6ccc(F)cc6)CC5)cc4)ccnc3c2)ccc1=O [Compound 119, 1-N′-(4-Fluorophenyl)-1-N-[4-[7-(1-methyl-6-oxopyridin-3-yl)quinolin-4-yl]oxyphenyl]cyclopropane-1,1-dicarboxamide] | ≤ 10
23 | O=C(Nc1ccc(F)cc1)C1(C(=O)Nc2ccc(Oc3ccnc4cc(-c5cccnc5O)ccc34)cc2)CC1 [Compound 52, 1-N′-(4-Fluorophenyl)-1-N-[4-[7-(2-hydroxypyridin-3-yl)quinolin-4-yl]oxyphenyl]cyclopropane-1,1-dicarboxamide] | 100 to 300
